One test concerns HCT116 WT cells. Put plainly: HCT116 WT cell line proliferation (CellTiter-Glo cell viability, 6 days). The conditions noted are these: HCT116 WT (parent) cells, 6 days of treatment, CellTiter-Glo cell viability, read-out: HCT-116 WT IC50. The class given is cell-based. The method, then:
(§1) To assess selective anti-proliferative activity of compounds of the invention in cells that have loss expression of MTAP, an HCT-116 isogenic cell line pair was utilized where one cell line was engineered to genetically knockout both MTAP alleles. Cell viability was then assessed in both the parent HCT-116 cell line and the MTAP null cell line after 6 days of treatment with compounds of the present invention. Selective anti-proliferative activity in the MTAP null cell line indicates MTA-cooperative inhibition of PRMT5 and ability to inhibit growth of cancer cells that have loss of MTAP.
(§2) HCT116 MTAP null and WT cells were seeded in 96-well tissue culture plates in RPMI 1640 media+10% fetal bovine serum. Plates were incubated overnight at 37° C. and 5% CO2. Cells were then treated with an 8- or 9-point serial dilution of compound, using a top concentration of 1, or 10 μM, 1:3 serial dilution steps and, a DMSO-only control. Cells were incubated in the presence of drug for 6 days. Effects on cell viability were measured with the CellTiter-Glo® Luminescent Cell Viability Assay (Promega) per manufacturer's recommendation. Assay plates were read on an EnVision™ Multilabel Reader using the Ultra-Sensitive luminescence module. IC50 values were calculated with GraphPad Prism v 5.01 using symmetrical sigmoidal dose-response least squares fit with Hill slope fixed to −1 and top constrain to 100% or GeneData Screener using a 4-parameter logistic model to fit dose response curves.
(§3) Alternatively, compounds could be assayed with a 384 well plate format:
(§4) Compounds were pre-spotted into 384 well plates with a 22-point serial dilution of compound, using a top concentration of 10 or 50 μM, 1:2 serial dilution steps and, a DMSO-only control. HCT116 MTAP null and WT cells were then seeded as above and after 6 days effects on cell viability were measured with the CellTiter-Glo® Luminescent Cell Viability Assay (Promega). Assay plates were read as above and IC50 values were calculated with GeneData Screener using a 4-parameter logistic model to fit dose response curves. The reported IC50 represents the value where the curve transits 50% of control.
(In general: ATP-based viability assays read luminescence as a measure of living cells.)

In a further test the test system is HCT116 MTAP null cells. Put plainly: HCT116 MTAP null cell line proliferation (CellTiter-Glo cell viability, 6 days). The conditions noted are these: HCT116 MTAP null cells, 6 days of treatment, CellTiter-Glo cell viability, read-out: HCT-116 MTAP null IC50. The test is classed as cell-based. The method, then: as §1, §2, §3, §4

The record followed here is patent publication US11845760B2, “PRMT5 inhibitors” (AMGEN INC., priority 2020, dated 2023).

Broadly, the IC50 is the concentration at which inhibition is half-maximal.

SMILES strings stand for the structures. Read-outs that look alike come from different tables or passages of the source. Where only a bound is given, the exact number is not on record here.

As for `Nc1nc2cnc(C(=O)N3CCOCC3c3ccc(C(F)(F)F)cc3F)cc2c2c1COC2` (racemic) [Example 387, (4-amino-1,3-dihydrofuro[3,4-c][1,7]naphthyridin-8-yl)((3R)-3-(2-fluoro-4-(trifluoromethyl)phenyl)-4-morpholinyl)methanone and (4-amino-1,3-dihydrofuro[3,4-c][1,7]naphthyridin-8-yl)((3S)-3-(2-fluoro-4-(trifluoromethyl)phenyl)-4-morpholinyl)methanone], the results for the IC50 with HCT116 WT cells and in the test with HCT116 MTAP null cells were 7250 nM and 193 nM, respectively.
Consider `C[C@H]1OCc2c1c(N)nc1ccc(C(=O)N3CC(c4ccc(Cl)cc4)CC3C3CC3)cc21` (stereo partly drawn) [Example 396, ((3R)-4-amino-3-methyl-1,3-dihydrofuro[3,4-c]quinolin-8-yl)(4-(4-chlorophenyl)-2-cyclopropylpyrrolidin-1-yl)methanone], for which the half-maximal inhibitory concentration (IC50) in the test with HCT116 WT cells (Homo sapiens, HCT-116, 144 h) worked out at 13300 nM; in the test with HCT116 MTAP null cells (HCT116-MTAP null, 144 h), 866 nM.
Taken in the same sequence, the figures for `C[C@@H]1COC[C@H](c2ccc(C(F)(F)F)cc2)N1C(=O)c1ccc2nc(N)c3c(c2c1)COC3` [Example 527, (4-amino-1,3-dihydrofuro[3,4-c]quinolin-8-yl)((3R,5S)-3-methyl-5-(4-(trifluoromethyl)phenyl)-4-morpholinyl)methanone] were 503 nM and 27 nM.
As to `Cn1ncc2c3cc(C(=O)N4CCOC[C@@H]4c4ccc(S(F)(F)(F)(F)F)cc4)c(F)cc3nc(N)c21` [Example 544, (4-amino-7-fluoro-3-methyl-3H-pyrazolo[3,4-c]quinolin-8-yl)((3S)-3-(4-(pentafluoro-lambda~6~- sulfanyl)phenyl)-4-morpholinyl)methanone], the half-inhibitory concentration (IC50) in the test with HCT116 WT cells (Homo sapiens, HCT-116, 144 h) came to 1010 nM; with HCT116 MTAP null cells (HCT116-MTAP null, 144 h), 24 nM.
The like results for `C[C@H]1OCc2c1c(N)nc1ccc(C(=O)N3CC(c4ccccc4)C4CCCC43)cc21` (stereo partly drawn) [Example 395, ((3R)-4-amino-3-methyl-1,3-dihydrofuro[3,4-c]quinolin-8-yl)(3-phenylhexahydrocyclopenta[b]pyrrol-1(2H)-yl)methanone] were, in that order, 8240 nM and 303 nM.
On to `C[C@H]1OCc2c1c(N)nc1ccc(C(=O)N3CCOC[C@@H]3c3ccnc(C(F)(F)F)c3)cc21` (racemic) [Example 354, ((3R)-4-amino-3-methyl-1,3-dihydrofuro[3,4-c]quinolin-8-yl)((3R)-3-(2-(trifluoromethyl)-4-pyridinyl)-4-morpholinyl)methanone and ((3R)-4-amino-3-methyl-1,3-dihydrofuro[3,4-c]quinolin-8-yl)((3S)-3-(2-(trifluoromethyl)-4-pyridinyl)-4-morpholinyl)methanone], for which the IC50 is > 10000 nM with HCT116 WT cells (Homo sapiens, HCT-116, 144 h) and 487 nM in the test with HCT116 MTAP null cells (HCT116-MTAP null, 144 h).
Regarding `C[C@@H]1COC[C@H](c2ccc(OC(F)(F)F)cn2)N1C(=O)c1cc2c3c(c(N)nc2cn1)COC3` (racemic) [Example 359, (4-amino-1,3-dihydrofuro[3,4-c][1,7]naphthyridin-8-yl)((3R,5S)-3-methyl-5-(5-(trifluoromethoxy)-2-pyridinyl)-4-morpholinyl)methanone and (4-amino-1,3-dihydrofuro[3,4-c][1,7]naphthyridin-8-yl)((3S,5R)-3-methyl-5-(5-(trifluoromethoxy)-2-pyridinyl)-4-morpholinyl)methanone], the half-maximal inhibitory concentration (IC50) worked out at 765 nM with HCT116 WT cells (Homo sapiens, HCT-116, 144 h) and 22 nM in the test with HCT116 MTAP null cells (HCT116-MTAP null, 144 h).
Take `CC1OCc2c1c(N)nc1cnc(C(=O)N3CCOCC3c3ccc(C(F)(F)C(F)(F)F)cc3)cc21` (mixture of isomers) [Example 337, ((3R)-4-amino-3-methyl-1,3-dihydrofuro[3,4-c][1,7]naphthyridin-8-yl)((3S)-3-(4-(pentafluoroethyl)phenyl)-4-morpholinyl)methanone and ((3S)-4-amino-3-methyl-1,3-dihydrofuro[3,4-c][1,7]naphthyridin-8-yl)((3S)-3-(4-(pentafluoroethyl)phenyl)-4-morpholinyl)methanone]: the 50% inhibitory concentration (IC50) in the test with HCT116 WT cells worked out at 1460 nM; with HCT116 MTAP null cells it was 30 nM.
For `Nc1nc2cnc(C(=O)N3CCOC[C@@H]3c3ccc(C(F)(F)F)cc3)cc2c2cncnc12` [Example 504, (5-aminopyrimido[4,5-c][1,7]naphthyridin-9-yl)((3S)-3-(4-(trifluoromethyl)phenyl)-4-morpholinyl)methanone], the IC50 in the test with HCT116 WT cells (Homo sapiens, HCT-116, 144 h) stood at 6380 nM; in the test with HCT116 MTAP null cells (HCT116-MTAP null, 144 h) it was 810 nM.
The like results for `C[C@H]1OCc2c1c(N)nc1ccc(C(=O)N3CCOC[C@H]3c3ccc(F)c(OC(F)(F)F)c3)cc21` (racemic) [Example 373, ((3R)-4-amino-3-methyl-1,3-dihydrofuro[3,4-c]quinolin-8-yl)((3R)-3-(4-fluoro-3-(trifluoromethoxy)phenyl)-4-morpholinyl)methanone and ((3R)-4-amino-3-methyl-1,3-dihydrofuro[3,4-c]quinolin-8-yl)((3S)-3-(4-fluoro-3-(trifluoromethoxy)phenyl)-4-morpholinyl)methanone] were, in that order, 7820 nM and 442 nM.
As to `Nc1nc2ncc(C(=O)N3CCOC[C@@H]3c3ccc(OC(F)(F)F)cc3)cc2c2c1COC2` [Example 507, (4-amino-1,3-dihydrofuro[3,4-c][1,8]naphthyridin-8-yl)-[(3S)-3-[4-(trifluoromethoxy)phenyl]morpholin-4-yl]methanone], the IC50 with HCT116 WT cells (Homo sapiens, HCT-116, 144 h) was > 10000 nM; in the test on HCT116 MTAP null cells (HCT116-MTAP null, 144 h), 843 nM.
As to `Nc1nc2cc(Cl)c(C(=O)N3CCC(c4ccc(C(F)(F)F)cn4)C3)cc2c2c1COC2` (racemic) [Example 542, (4-amino-7-chloro-1,3-dihydrofuro[3,4-c]quinolin-8-yl)((3R)-3-(5-(trifluoromethyl)-2-pyridinyl)-1-pyrrolidinyl)methanone and (4-amino-7-chloro-1,3-dihydrofuro[3,4-c]quinolin-8-yl)((3S)-3-(5-(trifluoromethyl)-2-pyridinyl)-1-pyrrolidinyl)methanone], the half-inhibitory concentration (IC50) turned out to be 12500 nM in the test on HCT116 WT cells (Homo sapiens, HCT-116, 144 h) and 235 nM in the test on HCT116 MTAP null cells (HCT116-MTAP null, 144 h).
Taken in the same sequence, the figures for `Cn1ncc2c(N)nc3ccc(C(=O)N4CCOC[C@@H]4c4ccc(OC(F)F)nn4)cc3c21` [Example 553, (4-amino-1-methyl-1H-pyrazolo[4,3-c]quinolin-8-yl)((3S)-3-(6-(difluoromethoxy)-3-pyridazinyl)-4-morpholinyl)methanone] were 32500 nM and 513 nM.
Taken in the same sequence, the figures for `Nc1nc2cc(F)c(C(=O)N3CCC(c4ccc(C(F)(F)F)cn4)C3)cc2c2c1COC2` (racemic) [Example 412, (4-amino-7-fluoro-1,3-dihydrofuro[3,4-c]quinolin-8-yl)((3R)-3-(5-(trifluoromethyl)-2-pyridinyl)-1-pyrrolidinyl)methanone and (4-amino-7-fluoro-1,3-dihydrofuro [3,4-c]quinolin-8-yl)((3S)-3-(5-(trifluoromethyl)-2-pyridinyl)-1-pyrrolidinyl)methanone] were 20800 nM and 725 nM.
For `COc1ccc([C@H]2COC[C@@H](C)N2C(=O)c2ccc3nc(N)c4c(cnn4C)c3c2)nn1` [Example 538, (4-amino-3-methyl-3H-pyrazolo[3,4-c]quinolin-8-yl)((3S,5R)-3-(6-methoxy-3-pyridazinyl)-5-methyl-4-morpholinyl)methanone], the half-maximal inhibitory concentration (IC50) in the test on HCT116 WT cells (Homo sapiens, HCT-116, 144 h) amounted to 13300 nM; in the test with HCT116 MTAP null cells (HCT116-MTAP null, 144 h), 282 nM.
The like results for `Cn1ncc2c(N)nc3cc(F)c(C(=O)N4C[C@@H](CO)[C@H](c5ccc(C(F)(F)F)cc5F)C4)cc3c21` [Example 446, (4-amino-7-fluoro-1-methyl-1H-pyrazolo[4,3-c]quinolin-8-yl)((3R,4S)-3-(2-fluoro-4-(trifluoromethyl)phenyl)-4-(hydroxymethyl)-1-pyrrolidinyl)methanone] were, in that order, 240 nM and 14 nM.
As to `Cn1ncc2c3cc(C(=O)N4CCOC[C@@H]4c4ccc(C(F)(F)F)cc4)ccc3nc(N)c21` (single isomer, unassigned) [Example 584], the IC50 stood at 11700 nM in the test on HCT116 WT cells (Homo sapiens, HCT-116, 144 h) and 236 nM in the test with HCT116 MTAP null cells (HCT116-MTAP null, 144 h).
For the molecule `C[C@@H]1COC[C@H](c2ccc(C(F)(F)F)cc2F)N1C(=O)c1ccc2nc(N)c3c(c2c1)COC3` (racemic) [Example 333, (4-amino-1,3-dihydrofuro[3,4-c]quinolin-8-yl)((3R,5S)-3-(2-fluoro-4-(trifluoromethyl)phenyl)-5-methyl-4-morpholinyl)methanone and (4-amino-1,3-dihydrofuro[3,4-c]quinolin-8-yl)((3S,5R)-3-(2-fluoro-4-(trifluoromethyl)phenyl)-5-methyl-4-morpholinyl)methanone], the half-maximal inhibitory concentration (IC50) with HCT116 WT cells turned out to be 1440 nM; in the test on HCT116 MTAP null cells, 58 nM.
